Data reported in patent publication US10869929B2, “Phosphonate linkers and their use to facilitate cellular retention of compounds” (priority 2016, dated 2020).

Key:
glucocorticoid receptor = glucocorticoid receptor (Homo sapiens (Human), UniProt P04150); assay: PolarScreen Glucocorticoid Receptor Competitor Assay (GR binding); conditions: fluormone GS red, GR full length protein; read-out: GR Bind IC50
Procedure: The potency of binding to glucocorticoid receptor by small molecule compounds was measured with the PolarScreen™ Glucocorticoid Receptor Competitor Assay Kit, Red (Life Technology, Catalog #A15898) according to the procedure in the kit. In brief, after compounds were diluted and transferred into assay plates, the fluormone GS red and GR full length protein were subsequently added into the assay plates, along with the positive and negative controls. The samples were mixed on a shaker for 1 minute and then the plates were incubated at room temperature for 2-4 hours with minimal light exposure. The plates were read with an Envision and the relative fluorescent signals were calculated. The data were plotted in GraphPad Prism and the EC50 values were calculated with non-linear regression curve fit of the data in GraphPad Prism.

MDCKII cells = assay: Apparent permeability in MDCKII cells; assay type: in vitro ADME; conditions: 1 μM, t=3 hr, average of A to B and B to A Papp
Procedure: Determination of apparent permeability was as follows. MDCKII cells (kindly provided by the Netherlands Cancer Institute, under a licensing agreement) were seeded on to 96-well transwell culture plates (Millipore Corp, Billerica, Mass.) and used in experiments after five days in culture. […] Substrate solution (150 μL) was added to either the apical (A) or the basolateral (B) compartment of the culture plate, and buffer (150 μL; HBSS, 10 mM HEPES, pH 7.4) with 10 μM cyclosporine A was added to the compartment opposite to that containing the substrate. At t=3 hr, 50 μL samples were removed from both sides of monolayers dosed with test compound and placed in 96 well plates, 50 μL internal standard (1 μM labetolol) and 100 μL HBSS was added to the samples. Samples were analyzed by LC/MS/MS using an Applied Biosystems SCIEX API 5000 triple quadruple mass spectrometer (Concord, ON, Canada) with a TurbolonSpray ion source in the positive ion mode. A Thermo Scientific Transcend LX-2 system (Franklin, Mass.) was coupled to the API 5000 with a flow rate of 800 μL/min to direct sample into the mass spectrometer.
Papp was expressed as 10^−6 cm/s.

GILZ gene = GILZ gene assay (qPCR, HUT78 / 786-O cells); assay type: cell-based
Procedure: GILZ gene assays were conducted as follows. HUT78 cells were cultured in IMEM plus 20% heat inactivated FBS and cell density was maintained between 0.1 to 1.2 million/mL. 786-O cells were cultured in RPMI plus 10% heat inactivated FBS. Actively growing cells were harvested and resuspended in HBSS with 2% FBS at 1.1 million cells per mL then dispensed to 384-well V-bottom plates at 45 μL per well. Serially diluted ADC solution was added to the cell plate (5 μL per well) and mixed for 2 min. Cells were then cultured at 37° C., at 5% CO2 for a designated time before supernatant was removed. Cells were harvested in lysis buffer from the Cells-to-Ct kit (40 μL, Life Technologies, 4391851C) following the supplier's protocol and mixed for 10 min followed by addition of 5 μL per well of stop solution from the kit. cDNA was synthesized with a reverse transcription kit (Life Technologies, 4391852C) follow by qPCR using the TaqMan gene expression master mix (Life Technologies, 4369016) with GILZ gene assay (Life Technologies, Hs00608272_m1) and GAPDH assay (Hs2758991_g1) in a duplex format with 3-4 technical replicates.

ZBTB16 mRNA = assay: Up-regulation of ZBTB16 mRNA in primary human B cells; assay type: cell-based
Procedure: The carrier solution for all ADCs and naked antibodies was 50 mM histidine pH 6.0, 100 mM NaCl and 5% trehelose. To assure consistency across experiments, ADCs were thawed on ice, dispensed to small aliquots, frozen to −80° C., and those aliquots were then used for experiments with unused material discarded at the end of the day. For all in vitro studies in this report, none of the read outs were measurably different in the presence or absence of the carrier solution. Nevertheless, the final concentration of antibody carrier solution was maintained constant at 1% v/v by serially diluting antibody solution prior to addition to the assay mixture and adding carrier solution to control wells.
For the studies of ADCs bearing reduced permeability payloads frozen human CD19+ B cells purchased from Precision Biosciences (catalog #84400, donor #13108) were thawed and re-suspended in RPMI1640 plus 10% heat-inactivated FBS (cell culture medium) at 1 million cells/mL. […] B cells were bulk treated in a 96-well block and subsequently dispensed to 96 well plates (100 μL and […] cells per well) and incubated at 37° C., 5% CO2 for 18 or 40 hr. Control wells containing equal percentages of DMSO (0.1%) and ADC buffer (1%) as sample wells were included. Cells were transferred to a 96 well v-bottom plate and spun at 500×g for 5 min. Medium was removed and cells were lysed in 150 μL RLT buffer containing beta-mercaptoethanol. RNA was isolated (RNeasy 96 kit, Qiagen, Cat #74181) and cDNA was synthesized (iScript cDNA Synthesis Kit, BioRad, Cat #170-8891) according to the supplier's protocol. Quantitative PCR was performed on Applied Biosystem's 7900 HT Real-Time PCR System to measure expression of ZBTB16 (Life Technologies, Hs00957433_m1) and GAPDH (Life Technologies, Hs02758991_g1) in duplex format.
The ΔΔCt method was used to calculate fold change of expression of ZBTB16 relative to control sample, using 3 replicates per treatment condition. For free cell impermeable compounds, B cells were seeded at 100,000 cells/well in 90 μL in a 96-well flat bottom plate. Three fold serial dilutions were performed in DMSO, subsequent intermediate 10× stocks were made in tissue-culture medium and then added to the cell plate (10 μL/well). Cells were incubated at 37° C., 5% CO2 for 18 hr, harvested and processed for PCR as described above. EC50 curves were calculated using Graph Pad Prism 6 software using nonlinear fit (agonist) vs. response-variable slope (four parameters) calculation.
Potency and maximum activity of reduced permeability glucocorticoids (free payload) and the corresponding anti-CD74-drug conjugates on up-regulation of ZBTB16 mRNA levels in primary human B cells in vitro.

glucocorticoid receptor, sequence (P04150 whole entry): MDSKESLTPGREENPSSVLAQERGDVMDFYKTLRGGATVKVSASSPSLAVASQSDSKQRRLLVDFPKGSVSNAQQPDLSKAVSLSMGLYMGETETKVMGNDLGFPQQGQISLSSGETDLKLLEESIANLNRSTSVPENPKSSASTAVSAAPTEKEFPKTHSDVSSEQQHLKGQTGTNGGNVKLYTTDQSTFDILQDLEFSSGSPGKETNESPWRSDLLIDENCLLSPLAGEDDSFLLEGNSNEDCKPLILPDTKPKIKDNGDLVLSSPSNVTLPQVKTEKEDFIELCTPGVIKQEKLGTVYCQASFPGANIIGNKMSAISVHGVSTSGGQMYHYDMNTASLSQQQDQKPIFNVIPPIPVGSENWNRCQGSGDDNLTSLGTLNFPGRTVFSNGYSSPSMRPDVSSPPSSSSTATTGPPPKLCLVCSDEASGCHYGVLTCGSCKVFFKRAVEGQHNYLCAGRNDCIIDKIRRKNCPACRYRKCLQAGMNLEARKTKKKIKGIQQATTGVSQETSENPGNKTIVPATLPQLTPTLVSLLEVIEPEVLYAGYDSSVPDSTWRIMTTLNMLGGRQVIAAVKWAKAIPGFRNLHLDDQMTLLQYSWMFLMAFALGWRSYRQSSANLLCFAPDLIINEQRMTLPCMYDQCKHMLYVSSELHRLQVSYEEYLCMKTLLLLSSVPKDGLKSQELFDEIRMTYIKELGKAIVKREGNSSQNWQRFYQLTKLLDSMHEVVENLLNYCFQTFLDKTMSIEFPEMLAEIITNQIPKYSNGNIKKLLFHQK

With C[C@@H]1C[C@H]2[C@@H]3C[C@H](F)C4=CC(=O)C=C[C@]4(C)[C@@]3(F)[C@@H](O)C[C@]2(C)[C@@]1(OC(=O)CCCCCCCCP(=O)(O)O)C(=O)SCF [Compound 18, (9-(((6S,8S,9R,10S,11S,13S,14S,16R,17R)-6,9-difluoro-17-(((fluoromethyl)thio)carbonyl)-11-hydroxy-10,13,16-trimethyl-3-oxo-6,7,8,9,10,11,12,13,14,15,16,17-dodecahydro-3H-cyclopenta[a]phenanthren-17-yl)oxy)-9-oxononyl)phosphonic acid] the IC50 (glucocorticoid receptor) was 0.0001 µM, the “MDCK Permeability (cm × 10−6/sec)” value (MDCKII cells) was under 0.9 cm × 10−6/sec and the “GILZ Max” value (GILZ gene; at 10 uM) was 65% (at. The EC50 (GILZ gene; read-out: GILZ EC50) was 3.04 µM, the “ZBTB16 mRNA Max relative to free fluticasone” value (ZBTB16 mRNA) was over 77% and the EC50 (ZBTB16 mRNA; B-cell, free payload) was 3.2 µM.
